The supplement of paper PMC10627819

Key:
Test in all cases: Bliss interaction score (quartile over a dose matrix) (fitness difference); higher = more antagonism (negative = synergy)
B. subtilis 168 = tested on: B. subtilis 168
Procedure, shortened: (§1)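 Fitness was defined as normalised growth: OD595 at the start of stationary phase divided by the plate's robust no-drug mean and capped at 1. Single-drug fitness was inferred from combination measurements. The Bliss score is observed fitness minus the product of the single-drug values, summarised by quartiles across technical, biological and donor/recipient replicates.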

S. aureus DSM 20231 = tested on: S. aureus DSM 20231
Procedure, shortened: as §1

S. aureus Newman = tested on: S. aureus Newman
Procedure, shortened: as §1

S. pneumoniae D39V = tested on: S. pneumoniae D39V
Procedure, shortened: as §1
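Further: first quartile when negative (synergy) and third quartile when positive (antagonism).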

SMILES	Bliss interaction score (B. subtilis 168)	Bliss interaction score (S. aureus DSM 20231)	Bliss interaction score (S. aureus Newman)	Bliss interaction score (S. pneumoniae D39V)	Bliss interaction score (B. subtilis 168; main component drawn)	Bliss interaction score (S. aureus DSM 20231; main component drawn)	Bliss interaction score (S. aureus Newman; main component drawn)	Bliss interaction score (S. pneumoniae D39V; main component drawn)
CCC[C@@H]1C[C@@H](C(=O)N[C@@H]([C@H]2O[C@H](SC)[C@H](O)[C@@H](O)[C@H]2O)[C@@H](C)O)N(C)C1 [Lincomycin] + CN[C@H](CC(C)C)C(=O)N[C@H]1C(=O)N[C@@H](CC(N)=O)C(=O)N[C@H]2C(=O)N[C@H]3C(=O)N[C@H](C(=O)N[C@H](C(=O)O)c4cc(O)cc(O)c4-c4cc3ccc4O)[C@H](O[C@H]3C[C@](C)(N)[C@@H](O)[C@H](C)O3)c3ccc(c(Cl)c3)Oc3cc2cc(c3O[C@@H]2O[C@H](CO)[C@@H](O)[C@H](O)[C@H]2O[C@H]2C[C@](C)(NCc3ccc(-c4ccc(Cl)cc4)cc3)[C@@H](O)[C@H](C)O2)Oc2ccc(cc2Cl)[C@H]1O [Oritavancin]	0.0264	-0.0375	-0.0583	0.0612				
CC(=O)OC[C@H]1O[C@@H]([S-])[C@H](OC(C)=O)[C@@H](OC(C)=O)[C@@H]1OC(C)=O.CCP(CC)CC.[Au+] [Auranofin] + Clc1ccc(COC(Cn2ccnc2)c2ccc(Cl)cc2Cl)c(Cl)c1 [Miconazole]	0.0318	-0.0279	0.0208	0.086				
CC(=O)OC[C@H]1O[C@@H]([S-])[C@H](OC(C)=O)[C@@H](OC(C)=O)[C@@H]1OC(C)=O.CCP(CC)CC.[Au+] [Auranofin] + CO[C@H]1/C=C/O[C@@]2(C)Oc3c(C)c(O)c4c(O)c(c(/C=N/N5CCN(C)CC5)c(O)c4c3C2=O)NC(=O)/C(C)=C\C=C\[C@H](C)[C@H](O)[C@@H](C)[C@@H](O)[C@@H](C)[C@H](OC(C)=O)[C@@H]1C [Rifampicin]	0.081	0.0331	0.0123	0.0685				
O=C1CN(/N=C/c2ccc([N+](=O)[O-])o2)C(=O)N1 [Nitrofurantoin] + CO[C@@H]1[C@@H](OC(N)=O)[C@@H](O)[C@H](Oc2ccc3c(O)c(NC(=O)c4ccc(O)c(CC=C(C)C)c4)c(=O)oc3c2C)OC1(C)C [Novobiocin]	0.0731	0.0482	0.0827	0.0513				
CC(=O)OC[C@H]1O[C@@H]([S-])[C@H](OC(C)=O)[C@@H](OC(C)=O)[C@@H]1OC(C)=O.CCP(CC)CC.[Au+] [Auranofin] + COc1ccc(C[C@H](N)C(=O)N[C@H]2[C@@H](O)[C@H](n3cnc4c(N(C)C)ncnc43)O[C@@H]2CO)cc1 [Puromycin]	-0.0523	-0.0538	-0.0752	-0.103				
CC(=O)OC[C@H]1O[C@@H]([S-])[C@H](OC(C)=O)[C@@H](OC(C)=O)[C@@H]1OC(C)=O.CCP(CC)CC.[Au+] [Auranofin] + CC[C@H]1OC(=O)[C@H](C)[C@@H](O[C@H]2C[C@@](C)(OC)[C@@H](O)[C@H](C)O2)[C@H](C)[C@@H](O[C@@H]2O[C@H](C)C[C@H](N(C)C)[C@H]2O)[C@](C)(OC)C[C@@H](C)C(=O)[C@H](C)[C@@H](O)[C@]1(C)O [Clarithromycin]	0.0346	0.0219	0.0636	0.039				
CCC[C@@H]1C[C@@H](C(=O)N[C@@H]([C@H]2O[C@H](SC)[C@H](O)[C@@H](O)[C@H]2O)[C@H](C)Cl)N(C)C1 [Clindamycin] + CC[C@H]1OC(=O)[C@H](C)[C@@H](O[C@H]2C[C@@](C)(OC)[C@@H](O)[C@H](C)O2)[C@H](C)[C@@H](O[C@@H]2O[C@H](C)C[C@H](N(C)C)[C@H]2O)[C@](C)(O)C[C@@H](C)C(=O)[C@H](C)[C@@H](O)[C@]1(C)O [Erythromycin]	0.0748	-0.0244	-0.0542	0.123				
C/C(=C\C(=O)OCCCCCCCCC(=O)O)C[C@@H]1OC[C@H](C[C@@H]2O[C@H]2[C@@H](C)[C@H](C)O)[C@@H](O)[C@H]1O [Pseudomonic acid] + Oc1cc(Cl)ccc1Oc1ccc(Cl)cc1Cl [Triclosan]	-0.0255	-0.0069	-0.0174	0.0696				
N[C@@H]1CONC1=O [CycloserineD] + Oc1cc(Cl)ccc1Oc1ccc(Cl)cc1Cl [Triclosan]	0.0246	0.0965	0.0356	-0.11				
N[C@@H]1CONC1=O [CycloserineD] + CN(C)C(=O)C(CCN1CCC(O)(c2ccc(Cl)cc2)CC1)(c1ccccc1)c1ccccc1 [Loperamide]	-0.209	0.0915	0.0674	0.289				
N[C@@H]1CONC1=O [CycloserineD] + C[C@H]1COc2c(N3CCN(C)CC3)c(F)cc3c(=O)c(C(=O)O)cn1c23 [Levofloxacin]	0.0199	-0.12	-0.131	0.0882				
O=C1CN(/N=C/c2ccc([N+](=O)[O-])o2)C(=O)N1 [Nitrofurantoin] + COc1cc(Cc2cnc(N)nc2N)cc(OC)c1OC [Trimethoprim]	-0.181	-0.0418	0.0663	-0.553				
CC(=O)O[C@H]1C[C@@]2(C)[C@@H](C[C@@H](O)[C@H]3[C@@]4(C)CC[C@@H](O)[C@@H](C)[C@@H]4CC[C@@]32C)/C1=C(\CCC=C(C)C)C(=O)O [Fusidic acid] + Cc1cc(NS(=O)(=O)c2ccc(N)cc2)no1 [Sulfamethoxazol]	0.0933	-0.0234	-0.026	0.0975				
N[C@@H]1CONC1=O [CycloserineD] + CN1C2=CC=CC=C2N=C3C1=CC=CC3=O [Pyocyanin]	-0.0572	0.0676	-0.0546	0.201				
N[C@@H]1CONC1=O [CycloserineD] + C[C@H]1c2cccc(O)c2C(=O)C2=C(O)[C@]3(O)C(=O)C(C(N)=O)=C(O)[C@@H](N(C)C)[C@@H]3[C@@H](O)[C@@H]21 [Doxycycline]	0.0526	-0.116	-0.0254	0.243				
CC(=O)O[C@H]1C[C@@]2(C)[C@@H](C[C@@H](O)[C@H]3[C@@]4(C)CC[C@@H](O)[C@@H](C)[C@@H]4CC[C@@]32C)/C1=C(\CCC=C(C)C)C(=O)O [Fusidic acid] + Cn1nnc(-c2ccc(-c3ccc(N4C[C@H](CO)OC4=O)cc3F)cn2)n1 [Tedizolid]	-0.131	-0.0507	-0.048	-0.0933				
CC(=O)O[C@H]1C[C@@]2(C)[C@@H](C[C@@H](O)[C@H]3[C@@]4(C)CC[C@@H](O)[C@@H](C)[C@@H]4CC[C@@]32C)/C1=C(\CCC=C(C)C)C(=O)O [Fusidic acid] + CC(C1CCC(C(O1)OC2C(CC(C(C2O)OC3C(C(C(CO3)(C)O)NC)O)N)N)N)NC [Gentamicin]					-0.0712	0.034	0.0572	-0.0713
CC(=O)O[C@H]1C[C@@]2(C)[C@@H](C[C@@H](O)[C@H]3[C@@]4(C)CC[C@@H](O)[C@@H](C)[C@@H]4CC[C@@]32C)/C1=C(\CCC=C(C)C)C(=O)O [Fusidic acid] + CO[C@@]12[C@H](COC(N)=O)C3=C(C(=O)C(C)=C(N)C3=O)N1C[C@@H]1N[C@@H]12 [MitomycinC]	0.0298	0.0263	0.0159	-0.149				
O=C(N[C@H](CO)[C@H](O)c1ccc([N+](=O)[O-])cc1)C(Cl)Cl [Chloramphenicol] + O=C(O)[C@H]1/C(=C/CO)O[C@@H]2CC(=O)N21 [Clavulanic]	0.0981	-0.265	0.202	-0.0693				
CCC[C@@H]1C[C@@H](C(=O)N[C@@H]([C@H]2O[C@H](SC)[C@H](O)[C@@H](O)[C@H]2O)[C@@H](C)O)N(C)C1 [Lincomycin] + CO[C@@]12[C@H](COC(N)=O)C3=C(C(=O)C(C)=C(N)C3=O)N1C[C@@H]1N[C@@H]12 [MitomycinC]	0.0735	-0.0874	-0.0572	-0.0879				
CC(=O)OC[C@H]1O[C@@H]([S-])[C@H](OC(C)=O)[C@@H](OC(C)=O)[C@@H]1OC(C)=O.CCP(CC)CC.[Au+] [Auranofin] + C[C@@H]1O[C@@H]1P(=O)(O)O [Fosfomycin]	0.0301	0.0509	0.0901	-0.0421				
O=C1CN(/N=C/c2ccc([N+](=O)[O-])o2)C(=O)N1 [Nitrofurantoin] + Oc1cc(Cl)ccc1Oc1ccc(Cl)cc1Cl [Triclosan]	-0.039	-0.014	0.0328	0.0809				
CC(=O)OC[C@H]1O[C@@H]([S-])[C@H](OC(C)=O)[C@@H](OC(C)=O)[C@@H]1OC(C)=O.CCP(CC)CC.[Au+] [Auranofin] + O=C(O[C@@H]1Cc2c(O)cc(O)cc2O[C@@H]1c1cc(O)c(O)c(O)c1)c1cc(O)c(O)c(O)c1 [EGCG]	0.0518	-0.0255	-0.0511	0.08				
CC(=O)OC[C@H]1O[C@@H]([S-])[C@H](OC(C)=O)[C@@H](OC(C)=O)[C@@H]1OC(C)=O.CCP(CC)CC.[Au+] [Auranofin] + Oc1cc(Cl)ccc1Oc1ccc(Cl)cc1Cl [Triclosan]	-0.0277	-0.0223	-0.0211	0.106				
O=C(O[C@@H]1Cc2c(O)cc(O)cc2O[C@@H]1c1cc(O)c(O)c(O)c1)c1cc(O)c(O)c(O)c1 [EGCG] + CC[C@H]1OC(=O)[C@H](C)C(=O)[C@H](C)[C@@H](O[C@@H]2O[C@H](C)C[C@H](N(C)C)[C@H]2O)[C@](C)(OC)C[C@@H](C)C(=O)[C@H](C)[C@H]2N(CCCCn3cnc(-c4cccnc4)c3)C(=O)O[C@]12C [Telithromycin]	0.0403	-0.079	0.0859	0.0892				
